Data taken from patent US10889555B2, “Sulfonamide compound or salt thereof” (Taiho Pharmaceutical Co., Ltd., priority 2016, dated 2021).

System: HCC 1806 cells
Test: Cell proliferation inhibitory effect on human breast cancer cell line (crystal violet, 72 hours)
Type: cell-based
Conditions: Homo sapiens, HCC1806, 72 h, read-out: Cell growth suppression IC50
Summary of the method: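 Cells were seeded at 2,000/well in RPMI-1640 with 10% FBS and grown 1 day, then exposed to compound for 72 h at 37° C, 5% CO2. After glutaraldehyde fixation and 0.05% crystal violet staining, extracted dye was read at 540 nm. IC50 (μM) came from growth inhibition relative to untreated and cell-free wells.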

Structure (SMILES) | IC50 [µM]
CCc1ccc(F)c([C@@H](C)[C@H](NS(=O)(=O)c2ccc(Cl)c(C(C)O)c2OC)c2n[nH]c(=O)o2)c1C (stereo partly drawn) [Example 206A, 4-chloro-N-((1S,2R)-2-(3-ethyl-6-fluoro-2-methylphenyl)-1-(5-oxo-4,5-dihydro-1,3,4-oxadiazol-2-yl)propyl)-3-(1-hydroxyethyl)-2-methoxybenzenesulfonamide] | 0.57
COc1c(S(=O)(=O)N[C@H](c2n[nH]c(=O)o2)[C@H](C)c2c(F)ccc(C)c2C)ccc(Cl)c1C(C)(C)O [Example 212, 4-chloro-N-((1S,2R)-2-(6-fluoro-2,3-dimethylphenyl)-1-(5-oxo-4,5-dihydro-1,3,4-oxadiazol-2-yl)propyl)-3-(2-hydroxypropan-2-yl)-2-methoxybenzenesulfonamide] | 0.26
Cc1cccc2cccc([C@@H](C)[C@H](NS(=O)(=O)c3ccc(Cl)c4c3OCCC4O)c3n[nH]c(=O)o3)c12 (stereo partly drawn) [Example 232, 5-chloro-4-hydroxy-N-((1S,2R)-2-(8-methylnaphthalene-1-yl)-1-(5-oxo-4,5-dihydro-1,3,4-oxadiazol-2-yl)propyl)chroman-8-sulfonamide] | 0.33
C[C@H](c1c(F)ccc2ccccc12)[C@H](NS(=O)(=O)c1ccc(Cl)c2c1OCCC2O)c1n[nH]c(=O)o1 (stereo partly drawn) [Example 233, 5-chloro-N-((1S,2R)-2-(2-fluoronaphthalene-1-yl)-1-(5-oxo 4,5-dihydro-1,3,4-oxadiazol-2-yl)propyl)-4-hydroxychroman-8-sulfonamide] | 0.28
Cc1ccc(F)c([C@@H](C)[C@H](NS(=O)(=O)c2ncc(Cl)cc2C(N)=O)c2n[nH]c(=O)o2)c1C [Example 245, 5-chloro-2-(N-((1S,2R)-2-(6-fluoro-2,3-dimethylphenyl)-1-(5-oxo-4,5-dihydro-1,3,4-oxadiazol-2-yl)propyl)sulfamoyl)nicotinamide] | 0.15
Cc1c(Cl)ccc(F)c1[C@@H](C)[C@H](NS(=O)(=O)c1ncc(Cl)cc1C(N)=O)c1n[nH]c(=O)o1 [Example 249, 5-chloro-2-(N-((1S,2R)-2-(3-chloro-6-fluoro-2-methylphenyl)-1-(5-oxo-4,5-dihydro-1,3,4-oxadiazol-2-yl)propyl)sulfamoyl)nicotinamide] | 0.14
Cc1ccc(F)c([C@@H](C)[C@H](NS(=O)(=O)c2ncc(Br)cc2C(N)=O)c2n[nH]c(=O)o2)c1C [Example 250, 5-bromo-2-(N-((1S,2R)-2-(6-fluoro-2,3-dimethylphenyl)-1-(5-oxo-4,5-dihydro-1,3,4-oxadiazol-2-yl)propyl)sulfamoyl)nicotinamide] | 0.12
CNC(=O)c1nc(S(=O)(=O)N[C@H](c2n[nH]c(=O)o2)[C@H](C)c2c(F)ccc(C)c2C)ccc1Cl [Example 252, 3-chloro-6-(N-((1S,2R)-2-(6-fluoro-2,3-dimethylphenyl)-1-(5-oxo-4,5-dihydro-1,3,4-oxadiazol-2-yl)propyl)sulfamoyl)-N-methylpicolinamide] | 0.74
Cc1ccc(F)c([C@@H](C)[C@H](NS(=O)(=O)c2c(F)cc(Cl)cc2C(N)=O)c2n[nH]c(=O)o2)c1C [Example 258, 5-chloro-3-fluoro-2-(N-((1S,2R)-2-(6-fluoro-2,3-dimethylphenyl)-1-(5-oxo-4,5-dihydro-1,3,4-oxadiazol-2-yl)propyl)sulfamoyl)benzamide] | 0.58
Cc1ccc(F)c([C@@H](C)[C@H](NS(=O)(=O)c2cc3c(cc2C(N)=O)OCCO3)c2n[nH]c(=O)o2)c1C [Example 261, 7-(N-((1S,2R)-2-(6-fluoro-2,3-dimethylphenyl)-1-(5-oxo-4,5-dihydro-1,3,4-oxadiazol-2-yl)propyl)sulfamoyl)-2,3-dihydrobenzo[b][1,4]dioxin-6-carboxamide] | 0.72
Cc1ccc(F)c([C@@H](C)[C@H](NS(=O)(=O)c2cc([N+](=O)[O-])c(Cl)cc2C(N)=O)c2n[nH]c(=O)o2)c1C [Example 262, 5-chloro-2-(N-((1S,2R)-2-(6-fluoro-2,3-dimethylphenyl)-1-(5-oxo-4,5-dihydro-1,3,4-oxadiazol-2-yl)propyl)sulfamoyl)-4-nitrobenzamide] | 0.17
Cc1c(Br)ccc(F)c1[C@@H](C)[C@H](NS(=O)(=O)c1ncc(Cl)cc1C(N)=O)c1n[nH]c(=O)o1 [Example 264, 2-(N-((1S,2R)-2-(3-bromo-6-fluoro-2-methylphenyl)-1-(5-oxo-4,5-dihydro-1,3,4-oxadiazol-2-yl)propyl)sulfamoyl)-5-chloronicotinamide] | 0.76
Cc1ccc(F)c([C@@H](C)[C@H](NS(=O)(=O)c2ccc(Cl)c3c2OCC(=O)N3CCO)c2n[nH]c(=O)o2)c1C [Example 273, 5-chloro-N-((1S,2R)-2-(6-fluoro-2,3-dimethylphenyl)-1-(5-oxo-4,5-dihydro-1,3,4-oxadiazol-2-yl)propyl)-4-(2-hydroxyethyl)-3-oxo-3,4-dihydro-2H-benzo[b][1,4]oxazine-8-sulfonamide] | 0.81
Cc1ccc(F)c([C@@H](C)[C@H](NS(=O)(=O)c2ccc(Cl)c3c2OCCN3)c2n[nH]c(=O)o2)c1C [Example 275, 5-chloro-N-((1S,2R)-2-(6-fluoro-2,3-dimethylphenyl)-1-(5-oxo-4,5-dihydro-1,3,4-oxadiazol-2-yl)propyl)-3,4-dihydro-2H-benzo[b][1,4]oxazine-8-sulfonamide] | 0.37
COc1c(S(=O)(=O)N[C@H](c2n[nH]c(=O)o2)[C@H](C)c2c(F)ccc(C)c2C)ccc(Cl)c1C(C)=O [Example 294, 3-acetyl-4-chloro-N-((1S,2R)-2-(6-fluoro-2,3-dimethylphenyl)-1-(5-oxo-4,5-dihydro-1,3,4-oxadiazol-2-yl)propyl)-2-methoxybenzenesulfonamide] | 0.39

More lines, now with the values ahead:

IC50 [µM] | Structure (SMILES)
0.85 | Cc1ccc(F)c([C@@H](C)[C@H](NS(=O)(=O)c2cccc3c2OCCC3(O)C(F)(F)F)c2n[nH]c(=O)o2)c1C (stereo partly drawn) [Example 211A, N-((1S,2R)-2-(6-fluoro-2,3-dimethylphenyl)-1-(5-oxo-4,5-dihydro-1,3,4-oxadiazol-2-yl)propyl)-4-hydroxy-4-(tifluoromethyl)chroman-8-sulfonamide]
0.67 | COc1c(S(=O)(=O)N[C@H](c2n[nH]c(=O)o2)[C@H](C)c2c(F)ccc(C)c2C)ncc(Cl)c1C(C)O (stereo partly drawn) [Example 216, 5-chloro-N-((1S,2R)-2-(6-fluoro-2,3-dimethylphenyl)-1-(5-oxo-4,5-dihydro-1,3,4-oxadiazol-2-yl)propyl)-4-(1-hydroxyethyl)-3-methoxypyridine-2-sulfonamide]
0.49 | Cc1ccc(F)c([C@@H](C)[C@H](NS(=O)(=O)c2ccc(F)c3c2OCCC3O)c2n[nH]c(=O)o2)c1C (stereo partly drawn) [Example 241, 5-fluoro-N-((1S,2R)-2-(6-fluoro-2,3-dimethylphenyl)-1-(5-oxo-4,5-dihydro-1,3,4-oxadiazol-2-yl)propyl)-4-hydroxychroman-8-sulfonamide]
0.23 | Cc1ccc(F)c([C@@H](C)[C@H](NS(=O)(=O)c2ccc(Cl)c(C(=O)N(C)C)n2)c2n[nH]c(=O)o2)c1C [Example 253, 3-chloro-6-(N-((1S,2R)-2-(6-fluoro-2,3-dimethylphenyl)-1-(5-oxo-4,5-dihydro-1,3,4-oxadiazol-2-yl)propyl)sulfamoyl)-N,N-dimethylpicolinamide]
0.25 | Cc1c(Cl)ccc(F)c1[C@@H](C)[C@H](NS(=O)(=O)c1ncc(Br)cc1C(N)=O)c1n[nH]c(=O)o1 [Example 254, 5-bromo-2-(N-((1S,2R)-2-(3-chloro-6-fluoro-2-methylphenyl)-1-(5-oxo-4,5-dihydro-1,3,4-oxadiazol-2-yl)propyl)sulfamoyl)nicotinamide]
0.48 | Cc1ccc(F)c([C@@H](C)[C@H](NS(=O)(=O)c2cc(F)c(Cl)cc2C(N)=O)c2n[nH]c(=O)o2)c1C [Example 255, 5-chloro-4-fluoro-2-(N-((1S,2R)-2-(6-fluoro-2,3-dimethylphenyl)-1-(5-oxo-4,5-dihydro-1,3,4-oxadiazol-2-yl)propyl)sulfamoyl)benzamide]
0.2 | Cc1cc(S(=O)(=O)N[C@H](c2n[nH]c(=O)o2)[C@H](C)c2c(F)ccc(C)c2C)c(C(N)=O)cc1Cl [Example 257, 5-chloro-2-(N-((1S,2R)-2-(6-fluoro-2,3-dimethylphenyl)-1-(5-oxo-4,5-dihydro-1,3,4-oxadiazol-2-yl)propyl)sulfamoyl)-4-methylbenzamide]
0.35 | COc1cc(S(=O)(=O)N[C@H](c2n[nH]c(=O)o2)[C@H](C)c2c(F)ccc(C)c2C)c(C(N)=O)cc1Cl [Example 259, 5-chloro-2-(N-((1S,2R)-2-(6-fluoro-2,3-dimethylphenyl)-1-(5-oxo-4,5-dihydro-1,3,4-oxadiazol-2-yl)propyl)sulfamoyl)-4-methoxybenzamide]
0.59 | Cc1ccc(F)c([C@@H](C)[C@H](NS(=O)(=O)c2ccc(Cl)c3c2OCCC3N)c2n[nH]c(=O)o2)c1C (stereo partly drawn) [Example 278, 4-amino-5-chloro-N-((1S,2R)-2-(6-fluoro-2,3-dimethylphenyl)-1-(5-oxo-4,5-dihydro-1,3,4-oxadiazol-2-yl)propyl)chroman-8-sulfonamide]
0.15 | Cc1ccc(F)c([C@@H](C)[C@H](NS(=O)(=O)c2ccc(Cl)c3c2OCCN3C)c2n[nH]c(=O)o2)c1C [Example 288, 5-chloro-N-((1S,2R)-2-(6-fluoro-2,3-dimethylphenyl)-1-(5-oxo-4,5-dihydro-1,3,4-oxadiazol-2-yl)propyl)-4-methyl-3,4-dihydro-2H-benzo[b][1,4]oxazine-8-sulfonamide]
0.6 | Cc1c(Cl)ccc(F)c1[C@@H](C)[C@H](NS(=O)(=O)c1ccc(Cl)c2c1OCCN2C)c1n[nH]c(=O)o1 [Example 289, 5-chloro-N-((1S,2R)-2-(3-chloro-6-fluoro-2-methylphenyl)-1-(5-oxo-4,5-dihydro-1,3,4-oxadiazol-2-yl)propyl)-4-methyl-3,4-dihydro-2H-benzo[b][1,4]oxazine-8-sulfonamide]
